# In patent US5230897A, “Transdermal pentamidine” (priority 1991, dated 1993):
# Where “and” joins values, the source holds several entries; their conditions need not be identical. Equal entries are not always repeated. Where two headings read alike, the source gives them in different places.
# Experiments:
# [1] = Experimental: The in vitro studies described herein measured the rate of pentamidine transport across skin excised from a "nude" mouse. The skin is placed in a vertical two-chambered device. The skin partitions between a donor compartment containing a formulation to be tested and a receptor compartment containing the aqueous medium. The skin is clamped in place with skin epidermis facing the donor compartment. A water jacket maintains a constant temperature (37° C.).
# The following pharmaceutical formulations were prepared by dissolving any dry ingredients (i.e. pentamidine isethionate, terpene, methyl paraben, propyl paraben) in the solvent (i.e. isopropyl alcohol/water or propylene glycol/water). […] Gentle stirring was then continued for the next 15 minutes or until the solution thickened. When polyquaternium-10 is the polymer heating was required to make the formulation gel.
# [2] = Pentamidine pharmacokinetics after transdermal application in Rhesus monkeys (plasma, urine, residual analysis)
# [3] = rhesus monkey, in vivo
# [4] = Pentamidine pharmacokinetics after IV infusion in Rhesus monkeys (plasma, urine); assay type: in vivo
# Experimental: Pentamidine was administered to four Rhesus monkeys by an IV infusion of 1 hr duration which was designed to deliver 4 mg drug/kg animal weight. Urine samples were obtained at -24 to 0 hr, 0 to 3 hr, 3 to 7 hr, 7 to 24 hr and 24 to 48 hr. Blood (2 ml) was withdrawn from an arm vein at -24 hr, 0.5 hr, 1 hr, 2 hr, 3 hr, 5 hr, 7 hr, 24 hr and 48 hr after the end of the IV infusion. Plasma was obtained from the heparinized blood by centrifugation.
structure (smiles),measurement,setting,value
C=C(C)C1CCC(C)C(O)C1 (stereo not drawn) [dihydrocarveol],penetration enhancement for transdermal delivery of pentamidine,[1]; result in words,effective penetration enhancers
C=C(C)C1CCC(C)C(=O)C1 (stereo not drawn) [dihydrocarvone],penetration enhancement for transdermal delivery of pentamidine,[1]; result in words,effective penetration enhancers
"N=C(N)c1ccc(OCCCCCOc2ccc(C(=N)N)cc2)cc1 [pentamidine, 4,4'-[1,5-Pentanediylbis(oxy)]bisbenzenecarboximidamide]",% Absolute Bioavail.,"[2]; (AUCtrans/AUCiv) × (DOSEiv/DOSEtrans) × 100, individual monkeys 1, 2, 3, 4",99.2% and 29.03% and 18.99% and 27.19%
same,residual pentamidine recovered from transdermal chambers,[2]; chambers removed 24 hr after application,Only small amounts of the original dose of pentamidine were recovered
same,"% Dose absorbed excreted in urine, transdermal dose 0-48, Average (SD)","[2]; dose absorbed from urine % bioavailability, average of 4 monkeys",2.26 (1.45) %
same,"% Dose absorbed excreted in urine, transdermal dose 0-48","[2]; dose absorbed from urine % bioavailability, individual monkeys 1, 2, 3, 4",2.15% and 3.88% and 2.62% and 0.38%
same,% Bioavailability,"[2]; dose-corrected ratio of total pentamidine excreted in urine, transdermal vs IV, individual monkeys 1, 2, 3, 4",50.34% and 19.32% and 73.28% and 85.62%
same,"AUC, Trans (0-72 hr)","[2]; plasma, transdermal 292 mg, individual monkeys 1, 2, 3, 4, 4320 min",7407 (ng/ml) h and 3426 (ng/ml) h and 2721 (ng/ml) h and 4384 (ng/ml) h
same,bioavailability,"[2]; rhesus monkey, plasma, topical or ocular, 292 mg, % Absolute Bioavail., Average (SD), (AUCtrans/AUCiv) × (DOSEiv/DOSEtrans) × 100, average of 4 monkeys",43.6%
same,AUC at 72 h,"[2]; rhesus monkey, plasma, topical or ocular, 292 mg, AUC, Trans (0-72 hr), Average (SD), transdermal 292 mg, average of 4 monkeys",4.49 µg·h/mL
same,Fa at 24 h,"[2]; rhesus monkey, residual in pads, topical or ocular, 292 mg, % Absorbed (from residual analysis in the pads), Average (SD), transdermal, average of 4 monkeys",57.7%
same,bioavailability,"[2]; rhesus monkey, urine, topical or ocular, 292 mg, % Bioavailability, Average (SD), dose-corrected ratio of total pentamidine excreted in urine, transdermal vs IV, average of 4 monkeys",57.1%
same,% Absorbed (from residual analysis in the pads),"[2]; transdermal, individual monkeys 1, 2, 3, 4, 1440 min",70.9% and 54.4% and 58.8% and 46.5%
same,"Urine Cum. Pentam., Trans. 0-48 h, Average (SD)","[2]; urine, transdermal, average of 4 monkeys",2.98 (1.97) mg
same,"Urine Cum. Pentam., Trans. 0-48 h","[2]; urine, transdermal, individual monkeys 1, 2, 3, 4",3.16 mg and 2.18 mg and 5.61 mg and 0.95 mg
same,blood levels of pentamidine by transdermal delivery,[3],effective blood levels of pentamidine can be achieved by transdermal delivery
same,"Total Clearance, IV dose","[4]; DOSEiv/AUCiv, individual monkeys 1, 2, 3, 4, 4 mg/kg",39.27 lt/h and 24.18 lt/h and 20.38 lt/h and 19.38 lt/h
same,"AUC, IV (0-5 h)","[4]; plasma, IV 4 mg/kg, 1 hr infusion, individual monkeys 1, 2, 3, 4, 4 mg/kg, 300 min",428 (ng/ml) h and 719 (ng/ml) h and 883 (ng/ml) h and 784 (ng/ml) h
same,AUC at 5 h,"[4]; rhesus monkey, plasma, iv, 4 mg/kg, AUC, IV (0-5 h), Average (SD), IV 4 mg/kg, 1 hr infusion, average of 4 monkeys",0.704 µg·h/mL
same,clearance,"[4]; rhesus monkey, plasma, iv, 4 mg/kg, DOSEiv/AUCiv, average of 4 monkeys, read-out: Total Clearance, IV dose, Average (SD) (converted)",430 mL/min
same,dose excreted at 48 h,"[4]; rhesus monkey, urine, iv, 4 mg/kg, IV, average of 4 monkeys, read-out: % Dose excreted in urine, IV dose 0-48 h, Average (SD)",2.28%
same,CL renal at 48 h,"[4]; rhesus monkey, urine, iv, 4 mg/kg, amount in urine (0-48 h)/AUCiv, average of 4 monkeys, read-out: Renal Clearance, IV dose, Average (SD) (converted)",10 mL/min
same,"Urine Cum. Pentam., IV 0-48 h, Average (SD)","[4]; urine, IV, average of 4 monkeys",0.39 (0.27) mg
same,"Urine Cum. Pentam., IV 0-48 h","[4]; urine, IV, individual monkeys 1, 2, 3, 4",0.360 mg and 0.691 mg and 0.473 mg and 0.054 mg
Cc1ccc(C(C)C)c(O)c1 [thymol],penetration enhancement for transdermal delivery of pentamidine,[1]; result in words,effective penetration enhancers
CC(C)=C1CC[C@@H](C)CC1=O [pulegone],penetration enhancement for transdermal delivery of pentamidine,[1]; result in words,effective penetration enhancers
CC1=CCC(C(C)(C)O)CC1 (stereo not drawn) [α-terpineol],penetration enhancement for transdermal delivery of pentamidine,[1]; result in words,effective penetration enhancers
C=C(C)C1CC=C(C)[C@@H](O)C1 (stereo partly drawn) [carveol],penetration enhancement for transdermal delivery of pentamidine,[1],effective penetration enhancers
CC1=CCC(O)(C(C)C)CC1 (stereo not drawn) [terpene-4-ol],penetration enhancement for transdermal delivery of pentamidine,[1],effective penetration enhancers
CC(C)[C@@H]1CC[C@@H](C)CC1=O [menthone],penetration enhancement for transdermal delivery of pentamidine,[1]; result in words,effective penetration enhancers
CC12CCC(CC1=O)C2(C)C (stereo not drawn) [camphor],penetration enhancement for transdermal delivery of pentamidine,[1]; result in words,effective penetration enhancers
C=C(C)C1CC=C(C)C(=O)C1 (stereo not drawn) [carvone],penetration enhancement for transdermal delivery of pentamidine,[1]; result in words,effective penetration enhancers
C/C=C/c1ccc(OC)cc1 [t-anethole],penetration enhancement for transdermal delivery of pentamidine,[1]; result in words,effective penetration enhancers
C=C(C)[C@@H]1CC[C@@H](C)C[C@H]1O [isopulegol],penetration enhancement for transdermal delivery of pentamidine,[1]; result in words,effective penetration enhancers
C=CC(C)(O)CCC=C(C)C (stereo not drawn) [linalol],penetration enhancement for transdermal delivery of pentamidine,[1]; result in words,effective penetration enhancers
CC(C)[C@@H]1CC[C@@H](C)C[C@@H]1O (relative stereo) [neomenthol],penetration enhancement for transdermal delivery of pentamidine,[1]; result in words,effective penetration enhancers
Cc1ccc(C(C)C)cc1O [carvacrol],penetration enhancement for transdermal delivery of pentamidine,[1]; result in words,effective penetration enhancers
CC(C)=CCCC(C)=CC=O [citral],penetration enhancement for transdermal delivery of pentamidine,[1]; result in words,effective penetration enhancers
CC1CCC(C(C)C)C(O)C1 (stereo not drawn) [menthol],penetration enhancement for transdermal delivery of pentamidine,[1]; result in words,effective penetration enhancers
